# According to article PMC11374673, “Discovery of isoquinoline sulfonamides as allosteric gyrase inhibitors with activity against fluoroquinolone-resistant bacteria” (Nature Chemistry, 2024):
# Read-outs that look alike come from different tables or passages of the source.
# How the values were obtained:
# E. coli W3110 = assay: MIC by broth microdilution; type: cell-based, Escherichia coli; settings: for antimicrobial activity: relative to parent compound
# Description: (§1) MIC was determined by broth microdilution. Single-colony cultures were grown to exponential phase (OD600 of 0.5) aerobically at 37 °C. In case of strains from the Keio collection, 50 µg ml^−1 kanamycin was supplemented to the media to ascertain a homogeneous population. The bacterial suspensions were diluted 100-fold in CAMHB and 50 µl was added to a twofold serial dilution series of test compounds (50 µl per well) in polypropylene 96-well microtitre plates to reach a volume of 100 µl. The plates were sealed with breathable membranes and incubated overnight at 37 °C with constant shaking (600 r.p.m.).
# E. coli BW25113 = assay: Bacterial cytological profiling (BCP); type: cell-based, Escherichia coli; settings: BCP; for DIC angularity: 2 h, AMP 12.5, RIF 12.5, TET 6.25, CIP 0.0625, LEI-801 6.25, LEI-800 6.25 µM, average ± SD of 3 replicates; for DAPI intensity / SYTOX Green intensity: standardized to DMSO control
# Description: Overnight E. coli BW25113 cultures were diluted 1:100 in fresh LB medium in a 100 ml Erlenmeyer flask and incubated at 120 r.p.m. and 37 °C. When OD600 >0.2, the cultures were diluted to OD600 of 0.1 in fresh LB medium with a final volume of 200 µl in a 2 ml Eppendorf tube. The appropriate antibiotic or control treatment was applied and the samples were incubated at 200 r.p.m. and 30 °C for 2 h. Subsequently, 4,6-diamidino-2-phenylindole (DAPI) (2 µg ml^−1), FM4-64 (2 µg ml^−1) and SYTOX Green (0.5 µM) were added to reach the desired concentration and the samples were incubated a further 10 min. The samples were then centrifuged at 3,300g for 50 s and the pellets resuspended in half the original volume. From this suspension, 5 µl was spotted onto a 2.0% agarose pad for microscopy.
# Microscopy was performed on a Zeiss Axio Observer Z1/7 inverted microscope.
# For the qualitative assessment of the bacterial morphology, the acquired images were first pre-processed in ImageJ (v1.53m)[47]. Thereafter the brightness and contrast were adjusted to allow the clearest visual inspection of the particular phenotype. For the quantitative BCP, DIC images were first pre-processed and then a random forest classifier was trained with Illastik (v1.3.3)[48] to generate a segmented image. These binary masks were then combined together with the original DIC image and processed with the ImageJ plugin MicrobeJ (v 5.13l)[49]. MicrobeJ generated cell outlines and performed measurements on cell shape accordingly. The recorded cell outlines produced by MicrobeJ were exported and used as a guide to characterize the DNA shape within each bacterium using a custom-made ImageJ macro (Appendix II). DAPI and SYTOX Green intensity were measured on raw images in a similar manner. Then, by hand, polygons were drawn that excluded bacteria to determine background intensity. After background correction the intensity was standardized to the DMSO control within the same biological replicate. For PCA, the BCP assay was executed for three independently biological replicates. During each experiment, images were acquired until 24 or more bacteria in total had been observed. Following feature extraction for each replicate, principal component analysis was performed using GraphPad Prism (v9.0.0) using multiple variable analysis with standardized data. Principal components (PCs) were selected based on the per cent of total explained variance (minimum 80%).
# K. pneumoniae ATCC 29665 = assay: MIC by broth microdilution; type: cell-based, Klebsiella pneumoniae; settings: read-out: MIC K. pneumoniae ATCC 29665
# Description: as §1
# [1] = Escherichia coli, W3110, follow-up of the 12 library hits, read-out: MIC E. coli
# [2] = Escherichia coli, W3110, WT, broth microdilution, read-out: MIC E. coli W3110
# [3] = Klebsiella pneumoniae, ATCC29665, broth microdilution
# [4] = WT, broth microdilution, read-out: MIC E. coli W3110
compound,measurement,setting,value
Nc1ccc2c(N3CCC(COc4ccccn4)CC3)ncnc2n1 [AJ358],MIC,E. coli W3110; [1],> 50 µM
"CC1(C)S[C@@H]2[C@H](NC(=O)[C@H](N)c3ccccc3)C(=O)N2[C@H]1C(=O)O [AMP, ampicillin, reference compound]",DAPI circularity,E. coli BW25113,0.173 ± 0.043
same,DAPI nucleoid area,E. coli BW25113,9.445 ± 2.853
same,DAPI nucleoids,E. coli BW25113,2.583 ± 0.910
same,DAPI perimeter,E. coli BW25113,30.886 ± 6.792
same,DAPI roundness,E. coli BW25113,0.108 ± 0.020
same,DAPI solidity,E. coli BW25113,0.603 ± 0.036
same,DAPI total area,E. coli BW25113,19.710 ± 4.300
same,DIC area,E. coli BW25113,31.597 ± 3.284
same,DIC circularity,E. coli BW25113,0.144 ± 0.015
same,DIC curvature,E. coli BW25113,0.024 ± 0.004
same,DIC feret,E. coli BW25113,26.883 ± 3.012
same,DIC length,E. coli BW25113,27.774 ± 3.16
same,DIC perimeter,E. coli BW25113,56.849 ± 6.297
same,DIC roundness,E. coli BW25113,0.066 ± 0.008
same,DIC sinuosity,E. coli BW25113,1.033 ± 0.002
same,DIC solidity,E. coli BW25113,0.538 ± 0.044
same,DIC width,E. coli BW25113,1.143 ± 0.051
same,Decondensation,E. coli BW25113,0.619 ± 0.078
same,DIC angularity,E. coli BW25113,0.069 ± 0.009
same,DAPI intensity,E. coli BW25113,1.490 ± 0.410
same,SYTOX Green intensity,E. coli BW25113,1.901 ± 0.246
Nc1ccccc1S(=O)(=O)NCCNC/C=C/c1ccc(-c2cccnc2)cc1 [BB064],MIC,E. coli W3110; [1],> 50 µM
O=S(=O)(NCCNCCc1ccc(-c2cccnc2)cc1)c1cccc2cnccc12 [BB077],MIC,E. coli W3110; [1],> 50 µM
O=S(=O)(NCCNCc1ccc(-c2cccnc2)cc1)c1cccc2ccccc12 [Compound 47],MIC,E. coli W3110; [2],25 µM
same,antimicrobial activity,E. coli W3110,fourfold reduced activity
same,MIC,K. pneumoniae ATCC 29665; [3],> 50 µM
same,MIC,K. pneumoniae ATCC 29665; broth microdilution,50 µM
O=S(=O)(NCCNCc1ccc(-c2cccnc2)cc1)c1ccccc1 [Compound 48],MIC,E. coli W3110; [2],> 50 µM
same,MIC,E. coli W3110; [4],>50 µM
same,antimicrobial activity,E. coli W3110,lost all activity
same,MIC,K. pneumoniae ATCC 29665; [3],> 50 µM
same,MIC,K. pneumoniae ATCC 29665; broth microdilution,>50 µM
O=S(=O)(NCCNCc1ccc(-c2cccnc2)cc1)c1cccc2[nH]ncc12 [Compound 49],MIC,E. coli W3110; [2],> 50 µM
same,MIC,E. coli W3110; [4],>50 µM
same,MIC,K. pneumoniae ATCC 29665; [3],> 50 µM
same,MIC,K. pneumoniae ATCC 29665; broth microdilution,>50 µM
O=S(=O)(NCCNCc1ccc(-c2cccnc2)cc1)c1ccc2cn[nH]c2c1 [Compound 50],MIC,E. coli W3110; [2],> 50 µM
same,MIC,E. coli W3110; [4],>50 µM
same,MIC,K. pneumoniae ATCC 29665; [3],> 50 µM
same,MIC,K. pneumoniae ATCC 29665; broth microdilution,>50 µM
CNC(=O)c1ccc(S(=O)(=O)NCCNCc2ccc(-c3cccnc3)cc2)cn1 [Compound 51],MIC,E. coli W3110; [2],> 50 µM
same,MIC,E. coli W3110; [4],>50 µM
same,MIC,K. pneumoniae ATCC 29665; [3],> 50 µM
same,MIC,K. pneumoniae ATCC 29665; broth microdilution,>50 µM
O=S(=O)(NCCNCc1ccc(-c2cccnc2)cc1)c1ccnc2[nH]ccc12 [Compound 54],MIC,E. coli W3110; [2],> 50 µM
same,MIC,E. coli W3110; [4],>50 µM
same,MIC,K. pneumoniae ATCC 29665; [3],> 50 µM
same,MIC,K. pneumoniae ATCC 29665; broth microdilution,>50 µM
Nc1cc2c(S(=O)(=O)NCCNCc3ccc(-c4cccnc4)cc3)cccc2cn1 [Compound 55],MIC,E. coli W3110; [2],> 50 µM
same,MIC,E. coli W3110; [4],>50 µM
same,MIC,K. pneumoniae ATCC 29665; [3],> 50 µM
same,MIC,K. pneumoniae ATCC 29665; broth microdilution,>50 µM
Cc1ccc(-c2ccc(CNCCNS(=O)(=O)c3cccc4cnccc34)cc2)cc1 [Compound 62],MIC,E. coli W3110; [2],> 50 µM
same,MIC,E. coli W3110; [4],>50 µM
same,MIC,K. pneumoniae ATCC 29665; [3],> 50 µM
same,MIC,K. pneumoniae ATCC 29665; broth microdilution,>50 µM
O=S(=O)(NCCNCc1ccc(-c2ccc(C(F)(F)F)cc2)cc1)c1cccc2cnccc12 [Compound 64],MIC,E. coli W3110; [2],> 50 µM
same,MIC,E. coli W3110; [4],>50 µM
same,MIC,K. pneumoniae ATCC 29665; [3],> 50 µM
same,MIC,K. pneumoniae ATCC 29665; broth microdilution,>50 µM
O=S(=O)(NCCNCc1ccc(-c2ccncc2)cc1)c1cccc2cnccc12 [Compound 65],MIC,E. coli W3110; [2],12.5 µM
same,MIC,K. pneumoniae ATCC 29665; [3],25 µM
O=S(=O)(NCCNCc1ccc(-c2cccc(F)c2)cc1)c1cccc2cnccc12 [Compound 66],MIC,E. coli W3110; [2],12.5 µM
same,MIC,K. pneumoniae ATCC 29665; [3],25 µM
Cc1cccc(-c2ccc(CNCCNS(=O)(=O)c3cccc4cnccc34)cc2)c1 [Compound 67],MIC,E. coli W3110; [2],> 50 µM
same,MIC,E. coli W3110; [4],>50 µM
same,MIC,K. pneumoniae ATCC 29665; [3],> 50 µM
same,MIC,K. pneumoniae ATCC 29665; broth microdilution,>50 µM
N#Cc1cccc(-c2ccc(CNCCNS(=O)(=O)c3cccc4cnccc34)cc2)c1 [Compound 68],MIC,E. coli W3110; [2],12.5 µM
same,MIC,K. pneumoniae ATCC 29665; [3],25 µM
O=S(=O)(NCCNCc1ccc(-c2cccc(C(F)(F)F)c2)cc1)c1cccc2cnccc12 [Compound 69],MIC,E. coli W3110; [2],25 µM
same,MIC,K. pneumoniae ATCC 29665; [3],> 50 µM
same,MIC,K. pneumoniae ATCC 29665; broth microdilution,>50 µM
O=S(=O)(NCCNCc1ccc(-c2ccccc2Cl)cc1)c1cccc2cnccc12 [Compound 70],MIC,E. coli W3110; [2],25 µM
same,MIC,K. pneumoniae ATCC 29665; [3],50 µM
O=S(=O)(NCCNC/C=C/c1ccccc1-c1ccc2c(c1)OCO2)c1cccc2cnccc12 [Compound 97i],MIC,E. coli W3110; [1],> 50 µM
Cc1ccc(S(=O)(=O)N[C@@H]2C(=O)c3cc(C)ccc3O[C@H]2C)cc1 [IMI1517570],MIC,E. coli W3110; [1],25 µM
CN(C)CCCN1c2ccccc2Sc2ccc(Cl)cc21 [MB053],MIC,"E. coli W3110; Escherichia coli, W3110, read-out: MIC E. coli",> 50 µM
"CO[C@H]1/C=C/O[C@@]2(C)Oc3c(C)c(O)c4c(O)c(c(/C=N/N5CCN(C)CC5)c(O)c4c3C2=O)NC(=O)/C(C)=C\C=C\[C@H](C)[C@H](O)[C@@H](C)[C@@H](O)[C@@H](C)[C@H](OC(C)=O)[C@@H]1C [RIF, rifampicin, reference compound]",DAPI circularity,E. coli BW25113,0.637 ± 0.019
same,DAPI nucleoid area,E. coli BW25113,4.992 ± 0.606
same,DAPI nucleoids,E. coli BW25113,1.120 ± 0.069
same,DAPI perimeter,E. coli BW25113,9.927 ± 0.636
same,DAPI roundness,E. coli BW25113,0.408 ± 0.029
same,DAPI solidity,E. coli BW25113,0.918 ± 0.003
same,DAPI total area,E. coli BW25113,5.402 ± 0.548
same,DIC area,E. coli BW25113,5.883 ± 0.716
same,DIC circularity,E. coli BW25113,0.642 ± 0.053
same,DIC curvature,E. coli BW25113,0.092 ± 0.018
same,DIC feret,E. coli BW25113,4.608 ± 0.076
same,DIC length,E. coli BW25113,4.635 ± 0.073
same,DIC roundness,E. coli BW25113,0.370 ± 0.047
same,DIC sinuosity,E. coli BW25113,1.017 ± 0.003
same,DIC solidity,E. coli BW25113,0.956 ± 0.014
same,DIC width,E. coli BW25113,1.327 ± 0.161
same,Decondensation,E. coli BW25113,0.922 ± 0.075
same,DIC angularity,E. coli BW25113,0.101 ± 0.016
same,DAPI intensity,E. coli BW25113,0.704 ± 0.260
same,SYTOX Green intensity,E. coli BW25113,2.120 ± 0.434
O=S(=O)(NCCNCCCc1ccc(-c2cccnc2)cc1)c1cccc2cnccc12 [SG145],MIC,E. coli W3110; [1],> 50 µM
O=S(=O)(NCCNC/C=C/c1ccc(-c2cccnc2)cc1)c1ccc2[nH]ncc2c1 [SG170],MIC,E. coli W3110; [1],> 50 µM
O=S(=O)(NCCNC/C=C/c1ccc(-c2cccnc2)cc1)c1ccc2cn[nH]c2c1 [SG171],MIC,E. coli W3110; [1],> 50 µM
O=S(=O)(NCCNC/C=C/c1ccc(-c2cccnc2)cc1)c1cccc2[nH]ncc12 [SG176],MIC,E. coli W3110; [1],> 50 µM
Nc1cc2c(S(=O)(=O)NCCNC/C=C/c3ccc(-c4cccnc4)cc3)cccc2cn1 [SG181],MIC,E. coli W3110; [1],> 50 µM
